pEC50: −log10 of the molar value. Bridge positions count the residues as written; N and C are the ends. Square brackets hold non-standard residues; d marks the D form. Peptide text beside a SMILES is read from it. Hyp = O=C(O)[C@@H]1C[C@@H](O)CN1; Cit = NC(=O)NCCC[C@H](N)C(=O)O
Key:
hAMY3 receptor = biological target: T1, hAMY3 receptor (Homo sapiens, UniProt O60896+P30988); experiment: cAMP assay for in vitro receptor activation, hAMY3-R; assay type: cell-based; conditions: cAMP assay, hAMY3 receptor; read-out: hAMY3R EC50
T1 sequence (P30988 25-474): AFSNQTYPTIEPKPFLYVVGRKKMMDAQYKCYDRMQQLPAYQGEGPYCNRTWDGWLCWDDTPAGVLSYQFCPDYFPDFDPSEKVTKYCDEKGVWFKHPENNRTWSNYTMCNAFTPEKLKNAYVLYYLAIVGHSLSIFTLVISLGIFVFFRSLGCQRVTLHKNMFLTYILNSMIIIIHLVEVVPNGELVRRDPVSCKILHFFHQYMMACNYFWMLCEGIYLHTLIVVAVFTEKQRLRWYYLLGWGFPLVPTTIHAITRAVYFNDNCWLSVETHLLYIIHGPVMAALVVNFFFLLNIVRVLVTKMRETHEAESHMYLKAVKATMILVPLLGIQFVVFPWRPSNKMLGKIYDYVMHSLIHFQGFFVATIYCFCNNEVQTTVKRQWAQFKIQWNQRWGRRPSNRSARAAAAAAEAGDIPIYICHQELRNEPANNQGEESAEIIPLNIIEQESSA
T1 sequence (O60896 24-148 partner): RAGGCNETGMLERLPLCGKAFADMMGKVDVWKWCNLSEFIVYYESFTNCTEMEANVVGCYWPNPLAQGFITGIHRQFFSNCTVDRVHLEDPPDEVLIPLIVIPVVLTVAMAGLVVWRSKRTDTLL
In short: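 Read-out is TR-FRET cAMP signal, recorded one hour after reagent addition, following 30 min room-temperature stimulation of stable hAMY3 cells with graded compound doses in casein/IBMX (0.5 mM) buffer.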

[1] = Physical stability of peptide analogues (Thioflavin T fibrillation); assay type: physicochemical; conditions: maximum ThT signal normalized between hAMY maximum and buffer background; 40° C., shaking, four days; pH 7 per table title
In short: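 Samples are stressed at 40 °C for four days, being shaken at 700 rpm before each 10-min fluorescence reading of 4 μM Thioflavin T. Buffers were pH 4 acetate or pH 7 phosphate. Reported values are smoothed maximum ThT signals as a percentage of the hAMY-to-background range.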

Row | pEC50 (hAMY3 receptor) | Max ThT signal (%) [1] | Compound
1 | 10.96 | 13.350% | CC[C@H](C)[C@H](NC(=O)[C@H](CCC(N)=O)NC(=O)[C@H](Cc1c[nH]cn1)NC(=O)[C@H](C)NC(=O)[C@H](CC(C)C)NC(=O)[C@H](CCCNC(N)=O)NC(=O)[C@H](CCC(N)=O)NC(=O)[C@@H](NC(=O)[C@@H](NC(=O)[C@@H]1CSSC[C@H](NC(=O)CN)C(=O)N[C@@H](CCCNC(=N)N)C(=O)N[C@@H](Cc2ccccc2)C(=O)NCC(=O)N[C@@H]([C@@H](C)O)C(=O)N1)[C@@H](C)O)C(C)C)C(=O)N[C@@H](Cc1ccc(O)cc1)C(=O)N[C@@H](CCC(N)=O)C(=O)N[C@@H](Cc1ccccc1)C(=O)N[C@H](C(=O)N[C@@H](CC(=O)O)C(=O)N[C@@H](CCCCN)C(=O)N[C@@H](CC(=O)O)C(=O)N[C@@H](CCCCN)C(=O)N[C@@H](CC(=O)O)C(=O)N[C@@H](CC(N)=O)C(=O)N[C@H](C(=O)N[C@@H](C)C(=O)N1CCC[C@H]1C(=O)N[C@@H](CCCNC(=N)N)C(=O)N[C@H](C(=O)N[C@@H](CC(N)=O)C(=O)N[C@H](C(=O)N[C@@H](CO)C(=O)N1CCC[C@H]1C(=O)N[C@@H](CCC(N)=O)C(=O)NCC(=O)N[C@@H](Cc1ccc(O)cc1)C(N)=O)C(C)C)[C@@H](C)O)C(C)C)[C@@H](C)O [compound 278] (H-GCRFGTCTVQ[Cit]LAHQIYQFTDKDKDNVAPRTNVSPQGY-NH2; disulfide 2-7; N-terminus assumed)
2 | 10.55 | 21.300% | CC[C@H](C)[C@H](NC(=O)[C@H](CCCCN)NC(=O)[C@H](CO)NC(=O)[C@H](CCCNC(=N)N)NC(=O)[C@@H]1CCCN1C(=O)[C@H](C)NC(=O)[C@@H](NC(=O)[C@H](CC(N)=O)NC(=O)[C@H](CC(=O)O)NC(=O)[C@H](CCCCN)NC(=O)[C@H](CC(=O)O)NC(=O)[C@H](CCCCN)NC(=O)[C@H](CC(=O)O)NC(=O)[C@@H](NC(=O)[C@H](Cc1ccccc1)NC(=O)[C@H](CCC(N)=O)NC(=O)[C@H](Cc1ccc(O)cc1)NC(=O)[C@@H](NC(=O)[C@H](CCC(N)=O)NC(=O)[C@H](Cc1c[nH]cn1)NC(=O)[C@H](C)NC(=O)[C@H](CC(C)C)NC(=O)[C@H](CCCNC(N)=O)NC(=O)[C@H](CCC(N)=O)NC(=O)[C@@H](NC(=O)[C@@H](NC(=O)[C@@H]1CSSC[C@H](NC(=O)CN)C(=O)N[C@@H](CCCNC(=N)N)C(=O)N[C@@H](Cc2ccccc2)C(=O)NCC(=O)N[C@@H]([C@@H](C)O)C(=O)N1)[C@@H](C)O)C(C)C)[C@@H](C)CC)[C@@H](C)O)C(C)C)C(=O)NCC(=O)N1CCC[C@H]1C(=O)N[C@@H](CCC(N)=O)C(=O)NCC(=O)N1C[C@H](O)C[C@H]1C(N)=O [compound 284] (H-GCRFGTCTVQ[Cit]LAHQIYQFTDKDKDNVAPRSKIGPQG[Hyp]-NH2; disulfide 2-7)

Second part, the compound before the results:

Row | Compound | pEC50 (hAMY3 receptor) | Max ThT signal (%) [1]
3 | CC[C@H](C)[C@H](NC(=O)[C@H](CCC(N)=O)NC(=O)[C@H](Cc1c[nH]cn1)NC(=O)[C@H](C)NC(=O)[C@H](CC(C)C)NC(=O)[C@H](CCCNC(=N)N)NC(=O)[C@H](CCC(N)=O)NC(=O)[C@@H](NC(=O)[C@@H](NC(=O)[C@@H]1CSSC[C@H](NC(=O)CN)C(=O)N[C@@H](CCCNC(=N)N)C(=O)N[C@@H]([C@@H](C)O)C(=O)NCC(=O)N[C@@H]([C@@H](C)O)C(=O)N1)[C@@H](C)O)C(C)C)C(=O)N[C@@H](Cc1ccc(O)cc1)C(=O)N[C@@H](CCC(N)=O)C(=O)N[C@@H](Cc1ccccc1)C(=O)N[C@H](C(=O)N[C@@H](CC(=O)O)C(=O)N[C@@H](CCCCN)C(=O)N[C@@H](CC(=O)O)C(=O)N[C@@H](CCCCN)C(=O)N[C@@H](CC(=O)O)C(=O)N[C@@H](CC(N)=O)C(=O)N[C@H](C(=O)N[C@@H](C)C(=O)N1CCC[C@H]1C(=O)N[C@@H](CCCNC(=N)N)C(=O)N[C@H](C(=O)N[C@@H](CC(N)=O)C(=O)N[C@H](C(=O)N[C@@H](CO)C(=O)N1CCC[C@H]1C(=O)N[C@@H](CCC(N)=O)C(=O)NCC(=O)N[C@@H](Cc1ccc(O)cc1)C(N)=O)C(C)C)[C@@H](C)O)C(C)C)[C@@H](C)O [compound 176] (H-GCRTGTCTVQRLAHQIYQFTDKDKDNVAPRTNVSPQGY-NH2; disulfide 2-7; N-terminus assumed) | 10.12 | 6.800%
4 | CC[C@H](C)[C@H](NC(=O)[C@H](CCC(N)=O)NC(=O)[C@H](Cc1c[nH]cn1)NC(=O)[C@H](C)NC(=O)[C@H](CC(C)C)NC(=O)[C@H](CCCNC(=N)N)NC(=O)[C@H](CCC(N)=O)NC(=O)[C@@H](NC(=O)[C@@H](NC(=O)[C@@H]1CSSC[C@H](NC(=O)CN)C(=O)N[C@@H](CCCNC(=N)N)C(=O)N[C@@H]([C@@H](C)O)C(=O)NCC(=O)N[C@@H]([C@@H](C)O)C(=O)N1)[C@@H](C)O)C(C)C)C(=O)N[C@@H](Cc1ccc(O)cc1)C(=O)N[C@@H](CCC(N)=O)C(=O)N[C@@H](Cc1ccccc1)C(=O)N[C@H](C(=O)N[C@@H](CC(=O)O)C(=O)N[C@@H](CCCCN)C(=O)N[C@@H](CC(=O)O)C(=O)N[C@@H](CCCCN)C(=O)N[C@@H](CC(=O)O)C(=O)N[C@@H](CC(N)=O)C(=O)N[C@H](C(=O)N[C@@H](C)C(=O)N1CCC[C@H]1C(=O)N[C@@H](CCCNC(=N)N)C(=O)N[C@@H](CO)C(=O)N[C@@H](CC(N)=O)C(=O)N[C@H](C(=O)N[C@@H](CO)C(=O)N1CCC[C@H]1C(=O)N[C@@H](CCC(N)=O)C(=O)NCC(=O)N1C[C@H](O)C[C@H]1C(N)=O)C(C)C)C(C)C)[C@@H](C)O [compound 224] (H-GCRTGTCTVQRLAHQIYQFTDKDKDNVAPRSNVSPQG[Hyp]-NH2; disulfide 2-7; N-terminus assumed) | 9.73 | 2.000%
5 | CC[C@H](C)[C@H](NC(=O)[C@H](CCC(N)=O)NC(=O)[C@H](Cc1c[nH]cn1)NC(=O)[C@H](C)NC(=O)[C@H](CC(C)C)NC(=O)[C@H](CCCNC(=N)N)NC(=O)[C@H](CCC(N)=O)NC(=O)[C@@H](NC(=O)[C@@H](NC(=O)[C@@H]1CSSC[C@H](NC(=O)CN)C(=O)N[C@@H](CCCNC(=N)N)C(=O)N[C@@H](Cc2ccccc2)C(=O)NCC(=O)N[C@@H]([C@@H](C)O)C(=O)N1)[C@@H](C)O)C(C)C)C(=O)N[C@@H](Cc1ccc(O)cc1)C(=O)N[C@@H](CCC(N)=O)C(=O)N[C@@H](Cc1ccccc1)C(=O)N[C@H](C(=O)N[C@@H](CC(=O)O)C(=O)N[C@@H](CCCCN)C(=O)N[C@@H](CC(=O)O)C(=O)N[C@@H](CCCCN)C(=O)N[C@@H](CC(=O)O)C(=O)N[C@@H](CC(N)=O)C(=O)N[C@H](C(=O)N[C@@H](C)C(=O)N1CCC[C@H]1C(=O)N[C@@H](CCCNC(=N)N)C(=O)N[C@H](C(=O)N[C@@H](CCCCN)C(=O)N[C@H](C(=O)N[C@@H](CO)C(=O)N1CCC[C@H]1C(=O)N[C@@H](CC(N)=O)C(=O)NCC(=O)N1C[C@H](O)C[C@H]1C(N)=O)[C@@H](C)CC)[C@@H](C)O)C(C)C)[C@@H](C)O [compound 113] (H-GCRFGTCTVQRLAHQIYQFTDKDKDNVAPRTKISPNG[Hyp]-NH2; disulfide 2-7; N-terminus assumed) | 10.66 | 14.700%
6 | CC[C@H](C)[C@H](NC(=O)[C@H](CC(N)=O)NC(=O)[C@@H](NC(=O)[C@H](CCCNC(=N)N)NC(=O)[C@@H]1CCCN1C(=O)[C@H](C)NC(=O)[C@@H](NC(=O)[C@H](CC(N)=O)NC(=O)[C@H](CC(=O)O)NC(=O)[C@H](CCCCN)NC(=O)[C@H](CC(=O)O)NC(=O)[C@H](CCCCN)NC(=O)[C@H](CC(=O)O)NC(=O)[C@@H](NC(=O)[C@H](Cc1ccccc1)NC(=O)[C@H](CCC(N)=O)NC(=O)[C@H](Cc1ccc(O)cc1)NC(=O)[C@@H](NC(=O)[C@H](CCC(N)=O)NC(=O)[C@H](Cc1c[nH]cn1)NC(=O)[C@H](C)NC(=O)[C@H](CC(C)C)NC(=O)[C@H](CCCNC(=N)N)NC(=O)[C@H](CCC(N)=O)NC(=O)[C@@H](NC(=O)[C@@H](NC(=O)[C@@H]1CSSC[C@H](NC(=O)CN)C(=O)N[C@@H](CCCNC(=N)N)C(=O)N[C@@H]([C@@H](C)O)C(=O)NCC(=O)N[C@@H]([C@@H](C)O)C(=O)N1)[C@@H](C)O)C(C)C)[C@@H](C)CC)[C@@H](C)O)C(C)C)[C@@H](C)O)C(=O)NCC(=O)N1CCC[C@H]1C(=O)N[C@@H](CCC(N)=O)C(=O)NCC(=O)N1C[C@H](O)C[C@H]1C(N)=O [compound 118] (H-GCRTGTCTVQRLAHQIYQFTDKDKDNVAPRTNIGPQG[Hyp]-NH2; disulfide 2-7; N-terminus assumed) | 10.62 | 7.400%

Reference: US12139520B2 (priority 2020, dated 2024)
